Assay results as given in ChEMBL document CHEMBL1201862, “PubChem BioAssay data set” (2004).
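Five compound concentrations were applied to cells in 96-well plates for 48 hours; endpoints were derived by simple linear interpolation of the resulting dose-response curve. GI50: concentration for 50% inhibition of growth.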 Activity calls are given as the source filed them. Cut-off read from the data, not from the text of the source: active = GI50 up to about 1.1 µM and inactive = higher.

Columns and labels:
Experiment in all cases: growth of human tumour cells (NCI), 48 h
TK-10 = tested on: TK-10
SK-OV-3 = tested on: SK-OV-3
HCT-116 = tested on: HCT-116
NCI/ADR-RES = tested on: NCI/ADR-RES
A549 = tested on: A549
ACHN = tested on: ACHN
SNB-19 = tested on: SNB-19
MCF7 = tested on: MCF7
SW-620 = tested on: SW-620
NCI-H460 = tested on: NCI-H460
NCI-H23 = tested on: NCI-H23
KM12 = tested on: KM12
SK-MEL-5 = tested on: SK-MEL-5
OVCAR-3 = tested on: OVCAR-3
RPMI-8226 = tested on: RPMI-8226
SN12C = tested on: SN12C
U-251 = tested on: U-251
OVCAR-5 = tested on: OVCAR-5
MDA-MB-231 = tested on: MDA-MB-231
HOP-92 = tested on: HOP-92
PC-3 = tested on: PC-3
CCRF-CEM = tested on: CCRF-CEM
SK-MEL-2 = tested on: SK-MEL-2
SF-295 = tested on: SF-295
OVCAR-4 = tested on: OVCAR-4
SF-268 = tested on: SF-268
SF-539 = tested on: SF-539
COLO 205 = tested on: COLO 205
HT-29 = tested on: HT-29
EKVX = tested on: EKVX
HL-60 = tested on: HL-60
MOLT-4 = tested on: MOLT-4
SR = tested on: SR
SK-MEL-28 = tested on: SK-MEL-28
K562 = tested on: K562
Malme-3M = tested on: Malme-3M
HCT-15 = tested on: HCT-15
MDA-N = tested on: MDA-N
A498 = tested on: A498
786-0 = tested on: 786-0
T47D = tested on: T47D
LOX IMVI = tested on: LOX IMVI
SNB-75 = tested on: SNB-75
Hs-578T = tested on: Hs-578T
M14 = tested on: M14
OVCAR-8 = tested on: OVCAR-8
DU-145 = tested on: DU-145
HOP-62 = tested on: HOP-62
IGROV-1 = tested on: IGROV-1
HCC 2998 = tested on: HCC 2998
UO-31 = tested on: UO-31
CAKI-1 = tested on: CAKI-1
UACC-257 = tested on: UACC-257
NCI-H522 = tested on: NCI-H522
RXF 393 = tested on: RXF 393
NCI-H226 = tested on: NCI-H226
UACC-62 = tested on: UACC-62
MDA-MB-435 = tested on: MDA-MB-435

In the case of `CCCC1(CCC)c2cc(/C=N\O)ccc2-c2ccc(-c3ccc(C(C)(C)C)cc3)cc21`, the GI50 (TK-10) is reported as 39 µM (inactive), the GI50 (SK-OV-3) is reported as > 100 µM (inactive) and the GI50 (HCT-116) is reported as 22.6 µM (inactive). For the same compound, the GI50 (NCI/ADR-RES) was 53.8 µM (inactive), the GI50 (A549) was 53.7 µM (inactive) and the GI50 (ACHN) was 41.9 µM (inactive). The GI50 (SNB-19) was > 100 µM (inactive), the GI50 (MCF7) was 25.6 µM (inactive) and the GI50 (SW-620) was 34.2 µM (inactive). The GI50 (NCI-H460) was 38.5 µM (inactive), the GI50 (NCI-H23) was 48.3 µM (inactive) and the GI50 (KM12) was 55.3 µM (inactive). The GI50 (SK-MEL-5) was 80.4 µM (inactive), the GI50 (OVCAR-3) was 22.9 µM (inactive) and the GI50 (RPMI-8226) was 33.7 µM (inactive). For the same compound, the GI50 (SN12C) was 23.1 µM (inactive), the GI50 (U-251) was > 10 µM (inactive) and the GI50 (OVCAR-5) was > 100 µM (inactive). The GI50 (MDA-MB-231) was 19.5 µM (inactive), the GI50 (HOP-92) was 64.9 µM (inactive) and the GI50 (PC-3) was 59.6 µM (inactive). The GI50 (CCRF-CEM) was 29.2 µM (inactive), the GI50 (SK-MEL-2) was 29 µM (inactive) and the GI50 (SF-295) was 33.2 µM (inactive). For the same compound, the GI50 (OVCAR-4) was > 100 µM (inactive), the GI50 (SF-268) was 56 µM (inactive) and the GI50 (SF-539) was > 100 µM (inactive). For the same compound, the GI50 (COLO 205) was > 100 µM (inactive), the GI50 (HT-29) was > 100 µM (inactive) and the GI50 (EKVX) was 56.8 µM (inactive). The GI50 (HL-60) was 20.7 µM (inactive), the GI50 (MOLT-4) was 23.4 µM (inactive) and the GI50 (SR) was 25.9 µM (inactive). The GI50 (SK-MEL-28) was 26.7 µM (inactive), the GI50 (K562) was 45.7 µM (inactive) and the GI50 (Malme-3M) was > 100 µM (inactive). The GI50 (HCT-15) was > 100 µM, the GI50 (MDA-N) was 57.3 µM (inactive) and the GI50 (A498) was > 10 µM (inactive). The GI50 (786-0) was 37.4 µM (inactive), the GI50 (T47D) was 57.5 µM (inactive) and the GI50 (LOX IMVI) was 32.7 µM (inactive). The GI50 (SNB-75) was 67.1 µM (inactive), the GI50 (Hs-578T) was 88.3 µM (inactive) and the GI50 (M14) was 50.2 µM (inactive). The GI50 (OVCAR-8) was 32.5 µM (inactive), the GI50 (DU-145) was > 100 µM (inactive) and the GI50 (HOP-62) was > 100 µM (inactive). The GI50 (IGROV-1) was 61.9 µM (inactive), the GI50 (HCC 2998) was 42.6 µM (inactive) and the GI50 (UO-31) was > 100 µM (inactive). The GI50 (CAKI-1) was > 100 µM (inactive) and the GI50 (UACC-257) was 93.1 µM (inactive).
`CCCc1cc2c(cc1O)CC[C@@H]1[C@@H]2CC[C@]2(C)[C@@H](O)CC[C@@H]12` was tested, and the GI50 (TK-10) was 16.2 µM (inactive), the GI50 (SK-OV-3) was 14.6 µM (inactive) and the GI50 (NCI/ADR-RES) was 6.32 µM (inactive). The GI50 (A549) was 10.6 µM (inactive), the GI50 (ACHN) was 12.9 µM (inactive) and the GI50 (SNB-19) was 12.9 µM (inactive). The GI50 (SW-620) was 3.95 µM (inactive), the GI50 (NCI-H460) was 10.7 µM (inactive) and the GI50 (NCI-H23) was 14.1 µM (inactive). For the same compound, the GI50 (KM12) was 9.12 µM (inactive), the GI50 (SK-MEL-5) was 10.5 µM (inactive) and the GI50 (OVCAR-3) was 11.8 µM (inactive). The GI50 (NCI-H522) was 8.32 µM (inactive), the GI50 (SN12C) was 11.7 µM (inactive) and the GI50 (U-251) was 6.62 µM (inactive). For the same compound, the GI50 (OVCAR-5) was 19.5 µM (inactive), the GI50 (RXF 393) was 10.2 µM (inactive) and the GI50 (MDA-MB-231) was 17.3 µM (inactive). For the same compound, the GI50 (NCI-H226) was 13.4 µM (inactive), the GI50 (HOP-92) was 19.1 µM (inactive) and the GI50 (PC-3) was 13.4 µM (inactive). For the same compound, the GI50 (CCRF-CEM) was 5.41 µM (inactive), the GI50 (SK-MEL-2) was 15.1 µM (inactive) and the GI50 (SF-295) was 5.82 µM (inactive). For the same compound, the GI50 (OVCAR-4) was 17.7 µM (inactive), the GI50 (SF-268) was 13.2 µM (inactive) and the GI50 (SF-539) was 10.8 µM (inactive). For the same compound, the GI50 (COLO 205) was 18.2 µM (inactive), the GI50 (HT-29) was 16.3 µM (inactive) and the GI50 (EKVX) was 12.7 µM (inactive). The GI50 (HL-60) was 12.6 µM (inactive), the GI50 (MOLT-4) was 5.6 µM (inactive) and the GI50 (SR) was 3.61 µM (inactive). The GI50 (SK-MEL-28) was 13.1 µM (inactive), the GI50 (K562) was 3.17 µM (inactive) and the GI50 (Malme-3M) was 13 µM (inactive). For the same compound, the GI50 (HCT-15) was 4.98 µM, the GI50 (MDA-N) was 2.29 µM (inactive) and the GI50 (A498) was 17.9 µM (inactive). For the same compound, the GI50 (786-0) was 13.6 µM (inactive), the GI50 (T47D) was 10.6 µM (inactive) and the GI50 (LOX IMVI) was 10.5 µM (inactive). For the same compound, the GI50 (SNB-75) was 13.5 µM (inactive), the GI50 (Hs-578T) was 10.1 µM (inactive) and the GI50 (M14) was 10.5 µM (inactive). For the same compound, the GI50 (OVCAR-8) was 14.4 µM (inactive), the GI50 (IGROV-1) was 15.2 µM (inactive) and the GI50 (HCC 2998) was 16.5 µM (inactive). The GI50 (UO-31) was 12 µM (inactive), the GI50 (CAKI-1) was 11.3 µM (inactive) and the GI50 (UACC-257) was 13.1 µM (inactive).
With `CCN(CC)CCC1CCCCN1CC(=O)N1c2ccccc2NC(=O)c2ccccc21` (stereo not given) the GI50 (TK-10) was > 100 µM (inactive), the GI50 (SK-OV-3) was > 100 µM (inactive) and the GI50 (HCT-116) was > 100 µM (inactive). For the same compound, the GI50 (A549) was > 100 µM (inactive), the GI50 (ACHN) was > 100 µM (inactive) and the GI50 (SNB-19) was > 100 µM (inactive). For the same compound, the GI50 (MCF7) was > 100 µM (inactive), the GI50 (NCI-H460) was > 100 µM (inactive) and the GI50 (NCI-H23) was > 100 µM (inactive). For the same compound, the GI50 (KM12) was > 100 µM (inactive), the GI50 (SK-MEL-5) was > 100 µM (inactive) and the GI50 (OVCAR-3) was > 100 µM (inactive). For the same compound, the GI50 (RPMI-8226) was > 100 µM (inactive), the GI50 (NCI-H522) was > 100 µM (inactive) and the GI50 (UACC-62) was > 100 µM (inactive). For the same compound, the GI50 (SN12C) was > 100 µM (inactive), the GI50 (U-251) was > 100 µM (inactive) and the GI50 (OVCAR-5) was > 100 µM (inactive). The GI50 (RXF 393) was > 100 µM (inactive), the GI50 (MDA-MB-231) was > 100 µM (inactive) and the GI50 (NCI-H226) was > 100 µM (inactive). For the same compound, the GI50 (HOP-92) was > 100 µM (inactive), the GI50 (PC-3) was > 100 µM (inactive) and the GI50 (CCRF-CEM) was > 100 µM (inactive). The GI50 (SK-MEL-2) was > 100 µM (inactive), the GI50 (SF-295) was > 100 µM (inactive) and the GI50 (OVCAR-4) was > 100 µM (inactive). The GI50 (SF-268) was > 100 µM (inactive), the GI50 (SF-539) was > 100 µM (inactive) and the GI50 (COLO 205) was > 100 µM (inactive). For the same compound, the GI50 (HT-29) was > 100 µM (inactive), the GI50 (EKVX) was > 100 µM (inactive) and the GI50 (HL-60) was > 100 µM (inactive). The GI50 (MDA-MB-435) was > 100 µM (inactive), the GI50 (MOLT-4) was > 100 µM (inactive) and the GI50 (SR) was > 100 µM (inactive). For the same compound, the GI50 (SK-MEL-28) was > 100 µM (inactive), the GI50 (K562) was > 100 µM (inactive) and the GI50 (Malme-3M) was > 100 µM (inactive). The GI50 (HCT-15) was > 100 µM, the GI50 (MDA-N) was > 100 µM (inactive) and the GI50 (A498) was > 100 µM (inactive). The GI50 (786-0) was > 100 µM (inactive), the GI50 (T47D) was > 100 µM (inactive) and the GI50 (LOX IMVI) was > 100 µM (inactive). For the same compound, the GI50 (SNB-75) was 6.11 µM (inactive), the GI50 (Hs-578T) was > 100 µM (inactive) and the GI50 (M14) was > 100 µM (inactive). For the same compound, the GI50 (OVCAR-8) was > 100 µM (inactive), the GI50 (DU-145) was > 100 µM (inactive) and the GI50 (HOP-62) was > 100 µM (inactive). The GI50 (IGROV-1) was > 100 µM (inactive), the GI50 (HCC 2998) was > 100 µM (inactive) and the GI50 (UO-31) was > 100 µM (inactive). The GI50 (CAKI-1) was > 100 µM (inactive) and the GI50 (UACC-257) was > 100 µM (inactive).
